Conditions: not given

| SMILES | ready biodegradability | log10 vapour pressure (mmHg) | melting point [°C] | boiling point [°C] | log10 Henry constant (atm·m³/mol) | log10 Koc (L/kg) |
| --- | --- | --- | --- | --- | --- | --- |
| N#CCCN(CCOC(=O)c1ccccc1)c1ccc(N=Nc2ccc([N+](=O)[O-])cc2)cc1 | not readily biodegradable |  |  |  |  |  |
| CCNc1nc(NC(C)C(C)C)nc(SC)n1 (stereo not drawn) |  | -5.85 | 65 |  |  |  |
| Clc1ccc(Cl)c(-c2cc(Cl)c(Cl)c(Cl)c2)c1 |  |  | 105 |  |  |  |
| CC(C)(C)C(=O)O | not readily biodegradable | -0.301 | 35 | 164 | -5.56 |  |
| CCOC(CN(CC)CC)OCC |  |  |  | 194 |  |  |
| CCCOC(=O)C1CCCCC1 |  |  |  | 216 |  |  |
| CC(=O)O[C@@H]1CC2CCC1(C)C2(C)C (stereo partly drawn) |  | -0.642 | 29 | 221 |  |  |
| N[C@H](CCC(=O)O)C(=O)O |  |  | 201 |  |  |  |
| O=C1NC(=O)C2(CCc3ccccc3C2)N1 (stereo not drawn) |  |  | 268 |  |  |  |
| COC(=O)Cc1ccccc1 |  |  |  | 216 |  |  |
| Nc1ccc(N=Nc2ccc([N+](=O)[O-])cc2)cc1 |  | -9.52 | 215 |  |  |  |
| CCOP(=S)(OCC)OC(Cl)C(Cl)(Cl)Cl (stereo not drawn) |  | -3.1 |  |  |  | 3.6 |
| OCCN(CCO)c1nc(N2CCCCC2)c2nc(N(CCO)CCO)ncc2n1 |  |  | 158 |  |  |  |
| COC(=O)c1cccc(Cl)c1 |  |  | 21 |  |  |  |
| CCOC(=O)CC#N | readily biodegradable | -1.41 | -22.5 | 210 |  |  |
| S=C(SSSSC(=S)N1CCCCC1)N1CCCCC1 | not readily biodegradable |  |  |  |  |  |
| CCOC(=O)C(F)(F)C(F)(F)F |  |  | 75.5 |  |  |  |
| CCC1(C)CCCCC1 |  |  |  | 152 |  |  |
| CC(C)(c1ccccc1)c1ccc(O)cc1 | not readily biodegradable | -4.23 | 75 | 335 |  |  |
| N=C(N)c1ccc(C=Cc2ccc(C(=N)N)cc2O)cc1 |  |  | 235 |  |  |  |
| C1OC1C1CO1 (stereo not drawn) |  | 1.59 |  |  |  | 0.4 |
| Cc1ccc([N+](=O)[O-])c2ccccc12 |  |  | 71.5 |  |  |  |

| SMILES | ready biodegradability | log10 vapour pressure (mmHg) | melting point [°C] | boiling point [°C] | log10 Henry constant (atm·m³/mol) | log10 Koc (L/kg) |
| --- | --- | --- | --- | --- | --- | --- |
| CC(=O)Nc1ccc(F)cc1 |  |  | 154 |  |  | 1.48 |
| Oc1cccc2cccnc12 | not readily biodegradable | -2.78 | 75.5 | 267 |  |  |
| CC(C)(C)C=O | readily biodegradable |  | 6 | 77.5 |  |  |
| C=CC[C@H](C)O |  |  |  | 116 |  |  |
| COBOC |  |  | -131 | 25.9 |  |  |
| CCCCON=O |  |  |  | 78 |  |  |
| CC(C)C1CCC(C)(O)CC1 (stereo not drawn) |  |  |  | 208 |  |  |
| CC(C)(C)CBr |  |  |  | 106 |  |  |
| Cc1ccc(N=C=S)cc1 |  |  | 25.5 | 237 |  |  |
| BrCCc1ccccc1 |  | -0.612 | -65.7 | 219 |  |  |
| Nc1ccc2c(O)cc(S(=O)(=O)O)cc2c1 | not readily biodegradable |  |  |  |  |  |
| Cc1cc(CC(=O)O)n(C)c1C(=O)c1ccc(Cl)cc1 |  |  | 178 |  |  |  |
| CP(C)C |  |  | -85 | 37.5 |  |  |
| COC(=O)Nc1nc2ccccc2[nH]1 | not readily biodegradable | -9.12 |  |  |  | 2.35 |
| Oc1cc(Cl)cc(Cl)c1 | not readily biodegradable | -2.07 | 68 | 233 |  | 2.83 |
| CC(C)(C)CCO |  | 0.389 | -60 | 143 |  |  |
| C=CCOC |  |  |  | 44 |  |  |
| Cc1ccc(S(=O)c2ccc(C)cc2)cc1 |  |  | 95 |  |  |  |
| COC(CC(OC)OC)OC |  |  |  | 183 |  |  |
| CC(=O)CC(C)C | readily biodegradable | 1.3 | -84 | 116 |  |  |
| NC(=O)Nc1ccc(Cl)c(Cl)c1 |  |  |  |  |  | 2.53 |
| CCCCN(CCCC)N=O |  | -1.33 |  |  |  |  |

| SMILES | ready biodegradability | log10 vapour pressure (mmHg) | melting point [°C] | boiling point [°C] | log10 Henry constant (atm·m³/mol) | log10 Koc (L/kg) |
| --- | --- | --- | --- | --- | --- | --- |
| Cc1cc(C)oc(=O)c1 |  |  | 51.5 | 245 |  |  |
| CCCC#CCCCC |  |  |  | 152 |  |  |
| CCCCN(C(C)=O)c1ccccc1 |  |  | 24.5 | 281 |  |  |
| C=CC1CCCCC1 |  |  |  | 128 |  |  |
| CC(CN1c2ccccc2Sc2ccccc21)N(C)C (stereo not drawn) |  |  | 60 |  |  |  |
| O=C(O)CSc1ccccc1 |  |  | 65 |  |  |  |
| Nc1ccc(C(=O)O)cn1 |  |  | 312 |  |  |  |
| C#CCCCCCCC |  | 0.797 | -50 | 151 |  |  |
| CCC(C)=NNc1ccc([N+](=O)[O-])cc1[N+](=O)[O-] |  |  | 117 |  |  |  |
| c1ccc2cc(Nc3ccc4ccccc4c3)ccc2c1 |  |  | 172 | 471 |  |  |
| Cc1cnc(C)c(C)n1 |  |  |  | 172 |  |  |
| O=C(O)c1ccccc1C(=O)O | readily biodegradable | -6.2 |  |  |  | 1.07 |
| O=C1CCc2ccccc2C1 |  |  | 18 | 237 |  |  |
| C=CCc1ccccc1O | readily biodegradable |  | -6 | 220 |  |  |
| O=C(CF)c1ccccc1 |  |  | 29 |  |  |  |
| CC(=O)OCC=Cc1ccccc1 |  |  |  | 265 |  |  |
| COc1ccc2c3c1O[C@H]1C(=O)CC[C@@]4(O)[C@@H](C2)N(C)CC[C@]314 |  |  | 219 |  |  |  |
| CC(C)c1ccc(O)c(O)c1 |  |  | 78 | 271 |  |  |
| CCOC(=O)c1ncn2c1CN(C)C(=O)c1cc(F)ccc1-2 |  |  | 202 |  |  |  |
| N#CCc1cccc(CC#N)c1 |  |  | 33.5 |  |  |  |
| C[C@@H]1O[C@@H](O[C@@H]2C=C3CC[C@@H]4[C@H](CC[C@]5(C)[C@@H](c6ccc(=O)oc6)CC[C@]45O)[C@@]3(C)CC2)[C@H](O)[C@H](O)[C@H]1O |  |  | 221 |  |  |  |
| C[C@H](N)CCc1ccccc1 |  |  | 143 | 223 |  |  |

| SMILES | ready biodegradability | log10 vapour pressure (mmHg) | melting point [°C] | boiling point [°C] | log10 Henry constant (atm·m³/mol) | log10 Koc (L/kg) |
| --- | --- | --- | --- | --- | --- | --- |
| O=C(O)c1ccc(Cl)cc1Cl | not readily biodegradable |  | 164 |  |  |  |
| O=C(S)c1ccccc1 |  |  | 24 |  |  |  |
| CCCCCc1ccc2c(c1)C(=O)c1ccccc1C2=O | not readily biodegradable |  |  |  |  |  |
| Ic1cc(I)cc(I)c1 |  |  | 184 |  |  |  |
| CN1CCCc2ccccc21 |  |  |  | 246 |  |  |
| CC(c1c(O)c2ccccc2oc1=O)c1c(O)c2ccccc2oc1=O |  |  | 178 |  |  |  |
| Nc1c(Cl)c(F)nc(OCC(=O)O)c1Cl |  | -10.5 | 232 |  |  |  |
| CC=CC(C)(C)O |  |  |  | 112 |  |  |
| CC(C)CON=O |  |  |  | 67 |  |  |
| CCC1CCNCC1 |  |  |  | 154 |  |  |
| Cc1cc(F)ccc1N |  |  | 14.2 |  |  |  |
| CC[C@@H](CO)NCCN[C@@H](CC)CO |  |  | 89 |  |  |  |
| CCOP(=S)(Oc1cnc(C(C)(C)C)nc1)OC(C)C (stereo not drawn) |  | -4.43 |  |  |  |  |
| CN1C(=O)CCS(=O)(=O)C1c1ccc(Cl)cc1 (stereo not drawn) |  |  | 116 |  |  |  |
| O=C(Cn1c(=O)sc2ccc(Cl)cc21)N1CCN(CCO)CC1 |  |  | 160 |  |  |  |
| CC(=O)N1CCOCC1 |  |  | 14.5 |  |  |  |
| ClC=C(Cl)C(Cl)Cl |  |  |  | 162 |  |  |
| CCCCC(C(C)=O)C(=O)OCC (stereo not drawn) |  |  |  | 222 |  |  |
| CC(=O)Oc1cccc(C)c1 |  |  | 12 | 212 |  |  |
| Cc1ccc(Br)c(C)c1 |  |  | -17 | 205 |  |  |
| O=[N+]([O-])c1c(O)c(Cl)cc(Cl)c1Cl |  |  | 92.5 |  |  |  |
| CNN | not readily biodegradable | 1.7 | -52.4 | 87.5 |  |  |

| SMILES | ready biodegradability | log10 vapour pressure (mmHg) | melting point [°C] | boiling point [°C] | log10 Henry constant (atm·m³/mol) | log10 Koc (L/kg) |
| --- | --- | --- | --- | --- | --- | --- |
| CCCC(Br)CC (stereo not drawn) |  |  |  | 142 |  |  |
| OCc1ccc(Cl)c(Cl)c1 |  |  | 36 | 150 |  |  |
| CCCCCCCC(=O)c1ccccc1 |  |  | 22.8 | 285 |  |  |
| O=C(O)c1cccnc1 | readily biodegradable |  | 237 |  |  |  |
| OCCN(CCO)CCO | not readily biodegradable | -5.44 | 20.5 | 335 |  |  |
| O=C(O)C(Br)CBr (stereo not drawn) |  |  | 66.5 |  |  |  |
| Cc1ccc(S(=O)(=O)Cl)cc1 | readily biodegradable |  | 71 |  |  |  |
| Cc1cc(C)cc(C(C)(C)C)c1 |  |  | -18 | 207 |  |  |
| CCN(CC)C(=O)CC(C)C |  |  |  | 211 |  |  |
| CC1CCCC(C(C)C)C1 (stereo not drawn) |  |  |  | 166 |  |  |
| ClCC(Cl)C(Cl)(Cl)Cl (stereo not drawn) |  |  |  | 180 |  |  |
| CCn1ccnc1 |  |  |  | 208 |  |  |
| CCCC(Cl)CC (stereo not drawn) |  |  |  | 123 |  |  |
| CC(=O)OC[C@H]1OC(OC(C)=O)[C@H](OC(C)=O)[C@@H](OC(C)=O)[C@@H]1OC(C)=O (stereo partly drawn) |  |  | 124 |  |  |  |
| Clc1cccc(-c2c(Cl)cc(Cl)c(Cl)c2Cl)c1Cl |  |  |  |  | -4.41 |  |
| OC1CCC(Cl)CC1 (stereo not drawn) |  |  | 82.5 |  |  |  |
| C=CC=O | not readily biodegradable | 2.44 | -87.7 | 52.6 | -3.91 |  |
| CCc1c(C)cccc1C |  | -0.132 | -16.2 | 190 |  |  |
| CC(C)Nc1ccc(NC(C)C)c2c1C(=O)c1ccccc1C2=O | not readily biodegradable |  |  |  |  |  |

Same assay, conditions: fish

| SMILES | log10 BCF | log10 biotransformation half-life (days) |
| --- | --- | --- |
| CC(C)(C)C(=O)O | 0.36 |  |
| S=C(SSSSC(=S)N1CCCCC1)N1CCCCC1 | 1.23 |  |
| Nc1ccc2c(O)cc(S(=O)(=O)O)cc2c1 | 0.38 |  |
| COC(=O)Nc1nc2ccccc2[nH]1 | 0.4 |  |
| Oc1cc(Cl)cc(Cl)c1 | 1.91 | -0.91 |
| CCCCCc1ccc2c(c1)C(=O)c1ccccc1C2=O | 2.94 | 0.2 |
| OCc1ccc(Cl)c(Cl)c1 | 0.54 |  |
| OCCN(CCO)CCO | 0.59 |  |

Reference: the OPERA property sets (Mansouri et al. 2018)
